Experiment [1] concerns IGF-1. Kind of experiment: Ability to promote the production of insulin-like growth factor-1 (IGF-1) in mice. Format: in vivo. To be noted: mice (n=5), in drinking water, 5 mg/kg weight/day, 3 weeks, ELISA; untreated control 0.03. As to the method:
Each of the test substances produced in Example 1 and the reference standard of sialic acid (N-acetylneuraminic acid produced by Wako Pure Chemical Industries, Ltd. and having a product number of 011-26173) was dissolved in drinking water, and after adjustment of their concentrations, the individual solutions were administered to mice (n=5); the test substances were administered at 5 mg/kg weight/day. After rearing for 3 weeks, the concentration of IGF-1 in peripheral blood was examined by ELISA method.

Experiment [2] concerns NIH3T3 cells. Put plainly: Cell-proliferative activity, NIH3T3 cells (MTT assay method, Cell Counting Kit-8). It is filed as cell-based. Particulars: for Cell proliferation rate: 24 hours, no addition taken as 100. The procedure:
NIH3T3 cells were cultured in a 96-well microplate to give a cell density of 10^5 cells/well, and solutions of concentration-adjusted test substance 1 and reference standard of sialic acid (N-acetylneuraminic acid produced by Wako Pure Chemical Industries, Ltd. and having a product number of 011-26173) were each added in an amount of 10 μl, followed by culture in a CO2 incubator for 24 hours (37° C., 4.5% CO2). Cell proliferation was measured by the MTT assay method using a kit (Cell Counting Kit-8 produced by DOJINDO Corporation and having a product number of 347-07621).
The cell proliferation rate was calculated at the respective additive concentrations of the test substance 1, with the value for no addition (0 mg/ml) of the test substance 1 being taken as 100.
The cell proliferation rate was calculated at the respective additive concentrations of the reference standard of sialic acid, with the value for no addition (0 mg/ml) of the reference standard of sialic acid being taken as 100.

In the case of `CC(=O)N[C@H]1[C@H]([C@H](O)[C@H](O)CO)OC(O)(C(=O)O)C[C@@H]1O` (some centres unmarked) [Reference standard of sialic acid, N-acetylneuraminic acid], in experiment [1], the “IGF-1 concentration in peripheral blood” value worked out at 4.4 µg/mL. Further, the Cell proliferation rate in experiment [2] (additive concentration 0.08 mg/ml) is reported as 96; in experiment [2] (additive concentration 0.31 mg/ml) it was 98; in experiment [2] (additive concentration 1.25 mg/ml), 101; in experiment [2] (additive concentration 2.5 mg/ml), 98; in experiment [2] (additive concentration 5.0 mg/ml), 99; in experiment [2] (additive concentration 10.0 mg/ml), 102. The “Change in cell proliferation rate (in words)” value in experiment [2] (additive concentrations up to 10.0 mg/ml) was “No change was recognized in the proliferation rate”.

For the origin of these results see patent publication US10610537B2, “Methods of producing sialooligosaccharides and uses thereof” (MASAYOSHI LTD., priority 2016, dated 2020).
